The values below come from patent US9333152B2, “Peptides which inhibit activated receptors and their use in cosmetic or pharmaceutical compositions” (LIPOTEC, S.A., priority 2011, dated 2016).

“And” between values parts separate entries of the source, which are not always exact repeats. Identical values can stand only once.

The subject of data set [1] is Reconstructed human epidermis (RHE). Description: Anti-sensitizing potential: IL-8 expression in reconstructed human epidermis (RHE), ELISA. As to conditions: versus placebo composition; allergens cinnamal and farnesol. Format: cell-based. The text has this:
Cosmetic creams containing parfums normally show allergic reactions due to some allergenic components like cinnamal or farnesol. The purpose of this experiment was to evaluate the anti-sensitizing potential of a cosmetic cream of Example 23 containing cinnamal, farnesol and the peptide Ac-L-Phe-L-Phe-L-Trp-L-Phe-L-His-L-Val-NH2, compared with a placebo cream (composition of Example 23 without the ingredients of phase C). In order to determine the anti-sensitizing potential the level of interleukin-8, IL-8 was measured for both creams in RHE tissues after 24 h of cream application.
Commercial RHE tissues (SkinEthic, Lyon, RHE/S/17) (0.5 cm^2) were treated in triplicate with 15 μg of the composition of Example 23 and the placebo composition over the surface of the tissue. After 24 hours of incubation in growth medium at 37° C. in a humidified atmosphere at 5% CO2, the IL-8 expression in the treated RHE tissues was determined using the ELISA Interleukin detection kit (Invitrogen) following the supplier's instructions. The absorbance was determined by reading the spectrophotometer Synergy MX, Biotek, at 450 nm.
On the technique in general: In an ELISA, binding on a coated surface is turned into a signal by an enzyme label.

A short description of data set [2]: In vivo study of skin hydration (Corneometer CM 825, legs). Also on record: species or system human. As to conditions: versus placebo composition. The procedure:
A comparative in vivo study of the hydrating capacity of the skin of the cosmetic composition in example 22 and its placebo composition, which contained the same ingredients and in the same percentages as the composition of example 22, except the peptide of the invention, Ac-L-Phe-L-Phe-L-Trp-L-Phe-L-His-L-Val-NH2, which was substituted by water.
The measurements of this study were carried out after the test persons were acclimatized for 45 minutes in a bioclimatic room (22° C.; 60% relative humidity) and with the purpose of maintaining the temperature and humidity constant during the measuring. The measurements of skin hydration were carried out on the legs using a Corneometer® CM 825 (Courage & Khazaka, Germany). […]
All the volunteers applied the placebo composition on their right leg and the cosmetic composition from Example 22 on their left legs twice a day for 4 weeks, always applying the placebo composition to the right leg and the composition from example 22 to the left leg. […] Skin measurement values were measured at three different places within the respective testing areas. The recorded values were averaged. […]

Data set [3] deals with sensitization of TRPV1 mediated by PAR-2 activity. Put plainly: Inhibition of sensitization of TRPV1 mediated by PAR-2 activity in sensory neurons in culture; CGRP levels (EIA). Format: cell-based. As to conditions: rat DRG neurons, 15 min, PAR-2 agonist I 30 μM then capsaicin 1 μM.
Experimental: Thus, the effectiveness and potential of the peptides in the inhibition of α-CGRP release due to TRPV-1 sensitization mediated by PAR-2 activity in culture of rat DRG neurons was evaluated.
DRG neurons in culture were incubated with the different treatments at the indicated concentrations in buffer medium HBSS (Hank's Balanced salt solution) for 15 min at 37° C., after which the neurons were sensitized by treatment with the PAR-2 agonist I at 30 μM for 15 min at 37° C. Lastly α-CGRP release was induced by treatment with capsaicin 1 μM for 5 min at 37° C. The supernatants were collected and the amount of α-CGRP released was determined by enzyme immunoassay using the Rat CGRP EIA kit (SPI-Bio, Societe de Pharmacologie et d'Immunologie-BIO, France) following the supplier's instructions. The intensity of the color, determined by reading the absorbency at 405 nm, is proportional to the amount of CGRP released. The relative values of CGRP released were determined by double standardization with regard to the basal release of CGRP of the negative control (cells treated with HBSS) and the maximum releases of CGRP induced by the treatment with the cells with the PAR-2 agonist I and capsaicin.
Data set [4] has as its system human epidermal keratinocytes. Description: Proliferation of human epidermal keratinocytes in culture (calcein-AM). Format: cell-based. As to conditions: 24 h, (T-C)/C. The procedure:
Cell proliferation was evaluated by a fluorescence-based cell viability method, in which the live cells are distinguished from the dead cells by the enzymatic conversion of calcein-AM to its fluorescent form.
Human keratinocytes were cultivated in DMEM supplemented with fetal bovine serum (FBS) until confluence was achieved. The cells were then separated using trypsin and were seeded at a density of 100,000 cells per well in 96-well plates. After 24 hours of incubation in DMEM at 37° C. in a humidified atmosphere at 5% CO2 a fresh medium was added with different concentrations of the product of the invention. Cells treated with DMEM as a negative control were used. The cells were incubated for another 24 hours under the same conditions and the medium was substituted by 100 μl of calcein-AM (Molecular Probes) at 0.4 μM diluted in phosphate buffered saline (PBS). After 30 minutes of incubation at 37° C. the fluorescence was measured at excitation 485 nm and emission 530 nm in a plate reader (Genios, Tecan). The total growth percentage was calculated as T/C×100 wherein T is the fluorescence of the wells treated with the peptides of the invention and C the fluorescence of the control wells treated with DMEM.

For another data set, the target named is T1, PAR-2 (Homo sapiens, UniProt P55085).
T1 construct: endogenous in cells; host or cells: human keratinocytes
T1 sequence (P55085 26-397): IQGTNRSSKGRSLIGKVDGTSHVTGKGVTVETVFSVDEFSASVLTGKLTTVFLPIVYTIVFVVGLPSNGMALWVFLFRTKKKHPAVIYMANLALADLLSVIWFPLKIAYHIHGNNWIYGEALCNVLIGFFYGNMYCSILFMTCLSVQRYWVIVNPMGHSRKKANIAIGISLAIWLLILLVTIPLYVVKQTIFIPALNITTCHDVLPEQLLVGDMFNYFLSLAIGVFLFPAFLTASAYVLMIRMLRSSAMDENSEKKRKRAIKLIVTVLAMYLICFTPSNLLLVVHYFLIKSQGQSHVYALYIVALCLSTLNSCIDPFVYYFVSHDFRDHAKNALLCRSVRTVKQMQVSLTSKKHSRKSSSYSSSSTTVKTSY
Put plainly: Inhibition of the release of IL-6 induced by PAR-2 activity in human keratinocytes (ELISA). Format: cell-based. The note with it: 48 h, relative to agonist. As for the experimental part:
Human keratinocytes were cultivated in supplemented Epilife® medium until confluence was achieved. The cells were then separated by treatment with trypsin and seeded at a density of 18,000 cells per well in 96-well plates pre-treated with collagen matrix. After 48 hours of incubation in supplemented Epilife® medium at 37° C. in a humidified atmosphere of 5% CO2 a fresh medium was added with different concentrations of the product of the invention together with PAR2 Agonist I at 50 μM. Cells treated with supplemented Epilife® medium were added as a negative control (Control). The cells were incubated for another 48 hours under the same conditions, after which the supernatants were collected and the amount of IL-6 released was determined using the Human IL-6 ELISA Ready-SET-GOI® commercial kit (eBioscience, Inc.) following the supplier's instructions. The absorbance of each well was determined by reading the spectrophotometer Multiskan Ascent Reader at 450 nm correcting for each determination with its corresponding reading at 570 nm. The relative levels of IL-6 were calculated standardized with regard to the absorbance corresponding to the treatment of the cells with the PAR-2 Agonist I (maximum release of IL-6 in this cell model).

The test system of the next data set is human dermal fibroblasts. Put plainly: Photoprotective effectiveness in human dermal fibroblasts (solar simulation lamp, Neutral Red). As to conditions: 0.01 μg/mL. Format: cell-based. The procedure:
The human dermal fibroblasts were maintained in culture for 24 hours in […] or phosphate buffered saline (irradiated control, IC) for 1 hour at 37° C. and humidified air with 5% CO2. The cells were then irradiated with a solar simulation lamp with an energy of 37 J/cm^2 at room temperature for 150 min. A control plate was kept in the dark for the same time at room temperature (non-irradiated control, NIC). After the irradiation period the cell medium was replaced by a fresh one and the cells were incubated for another 24 hours. Cell viability was determined by Neutral Red dye, measuring the optical density at 540 nm in a spectrophotometer, standardizing the values of each simple with regard to the cell viability of the non-irradiated control sample (CVNIC).

Data set [5] deals with human epidermal keratinocytes. Put plainly: Induction of healing in human epidermal keratinocytes in culture (cell-free area closure). Format: cell-based. The note with it: 48 h, (A0-A48)/A0. As for the experimental part:
Human keratinocytes were cultivated in DMEM supplemented with fetal bovine serum (FBS) until confluence was achieved. The cells were then separated using trypsin and were seeded at a density of 50,000 cells per well in 48-well plates. After 48 hours of incubation in DMEM at 37° C. in a humidified atmosphere at 5% CO2 a cut in the cultivation with a pipette point to create an area without cells simulating an injury and photographs were taken of said area with a Zeiss Axiovert 40 CFL microscope equipped with a AxioCam MRc5 camera, calculating the area of the zone without cells using the (A0) equipment software. A fresh medium was then added with different concentrations of the product of the invention. Cells treated with DMEM as a negative control were used, and cells treated with DMEM and FBS as the positive healing control. The cells were incubated for another 48 hours under the same conditions to enable cell migration in the injury area, after which photographs were taken of the injury area once again and the corresponding areas of the zones without cells were calculated (A48).
The healing percentage was calculated as the ratio of the reduction to the area without cells after 48 hours and the area without cells before incubation with the peptide [(A0-A48)/A0].

[6] abbreviates: peptide 0.1 mg/mL with PAR2 Agonist I 50 μM.
Where [7] appears, read: peptide 0.5 mg/mL with PAR2 Agonist I 50 μM.

In the case of “Ac-FFWFHV-NH2 [Ac-L-Phe-L-Phe-L-Trp-L-Phe-L-His-L-Val-NH2]”, the “IL-8 expression / release of cytokines (in words)” value in data set [1] is on record as “highly counteract the release of cytokines induced by cosmetic allergens”. For the same substance, the “skin hydration (in words)” value in data set [2] was “improves the skin's hydration in vivo”. In addition, the “% CGRP” value in data set [3] (peptide 25 μg/mL) came to 58.9%; in data set [3] (peptide 0.5 mg/mL) it was 17.7%. Moreover, the “% Stimulation of proliferation” value in data set [4] (10 μg/mL) was 21.3%; in data set [4] (25 μg/mL), 23% and 23.2%. Also, the “% IL-6” value on PAR-2 (setting [6]) was determined as 61.8%; on PAR-2 (setting [7]), 30.4%. Further, the “% PHOTOPROTECTIVE EFFECTIVENESS” value with human dermal fibroblasts ((CVi-CVIC)/CVIC versus irradiated control) is 105.9%. For the same substance, in the data set on human dermal fibroblasts (irradiated 37 J/cm^2, 150 min, relative to non-irradiated control), the “CELL VIABILITY (%)” value was 37.1%. Also, the “% Healing” value was 40.0% in data set [5] (25 μg/mL); 45% and 44.8% in data set [5] (0.5 mg/mL).
“Ac-FMWFHV-NH2 [Ac-L-Phe-L-Met-L-Trp-L-Phe-L-His-L-Val-NH2]”: the “% CGRP” value is given as 70.1% in data set [3] (peptide 25 μg/mL) and 20.2% in data set [3] (peptide 0.5 mg/mL). In addition, the “% IL-6” value stood at 84.6% at PAR-2 (setting [6]) and 42.3% on PAR-2 (setting [7]).
For “Ac-FFWDIV-NH2 [Ac-L-Phe-L-Phe-L-Trp-L-Asp-L-Ile-L-Val-NH2]”, in that order: 78.7%, 20.3%, 36.2% and 11.5%.
